Reference: US6528528B2 (Warner-Lambert Company, priority 1997, dated 2003)

Biological target: T1, rabbit reticulocyte 15-LO (Oryctolagus cuniculus, UniProt P12530)
T1 construct: Fifteen-lipoxygenase was obtained from phenylhydrazine-treated rabbits and purified per the method of Rapoport; from tissue; host or cells: reticulocytes of phenylhydrazine-treated rabbits
T1 sequence (P12530 1-663): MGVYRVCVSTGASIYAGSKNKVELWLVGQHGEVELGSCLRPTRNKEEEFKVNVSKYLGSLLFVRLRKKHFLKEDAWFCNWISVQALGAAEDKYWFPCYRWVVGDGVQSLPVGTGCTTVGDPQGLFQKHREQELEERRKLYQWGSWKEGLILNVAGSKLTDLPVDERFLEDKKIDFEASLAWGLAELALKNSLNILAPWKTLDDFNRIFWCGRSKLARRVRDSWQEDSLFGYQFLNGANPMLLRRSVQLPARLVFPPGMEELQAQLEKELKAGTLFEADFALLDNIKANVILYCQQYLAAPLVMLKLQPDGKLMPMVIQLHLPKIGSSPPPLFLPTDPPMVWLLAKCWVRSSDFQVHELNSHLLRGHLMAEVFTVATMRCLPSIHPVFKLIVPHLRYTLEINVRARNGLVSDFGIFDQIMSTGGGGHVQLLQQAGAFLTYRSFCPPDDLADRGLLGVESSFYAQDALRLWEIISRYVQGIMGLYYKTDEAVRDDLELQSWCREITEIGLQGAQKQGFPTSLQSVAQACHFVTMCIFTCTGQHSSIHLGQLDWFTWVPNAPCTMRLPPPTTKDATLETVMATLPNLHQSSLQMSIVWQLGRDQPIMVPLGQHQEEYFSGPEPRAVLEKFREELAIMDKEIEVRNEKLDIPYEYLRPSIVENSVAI
Test: Rabbit Reticulocyte 15-LO Assay (h15LO)
Type: biochemical
Conditions: for h15LO, value given as bare %: concentration not given; for IC50: 2U rabbit reticulocyte 15-LO, 174 μM linoleic acid, 15 minutes at 4° C.
Experimental: Rabbit Reticulocyte 15-LO Assay (h15LO)
The present 15-LO assay takes advantage of the ability of 15-LO to oxidize the fatty acid linoleic acid to the hydroperoxy fatty acid 13-(S)HPODE, resulting in the formation of a conjugated diene. The 15-LO inhibitors are incubated with 15-LO enzyme in the presence of linoleic acid substrate. The initial reaction is compared to an uninhibited (maximal) reaction to yield % inhibition. […] This prevents artificial nonenzyme lipid peroxidation and product breakdown in the sample. 13-HPODE is quantitated by comparing peak areas of individual samples with those from a standard curve generated using authentic 13-HODE. This assay is performed using 2U of rabbit reticulocyte 15-LO in the presence of 174 μM linoleic acid. The reaction is incubated for 15 minutes at 4° C. The total reaction volume is 100 μL in PBS containing 0.2% Na cholate.
Fifteen-lipoxygenase was obtained from phenylhydrazine-treated rabbits and purified per the method of Rapoport (Rapoport S. M., Schewe T., Wiesner R., et al. The lipoxygenase of reticulocytes. Purification, characterization, and biological dynamics of the lipoxygenase; its identity with the respiratory inhibitors of the reticulocyte. European Journal of Biochemistry, 1979;96:545-561). The following chemicals were purchased and used as received: linoleic acid (NUJCheck Prep), 13-HPODE (Biomol Research Labs), sodium cholate (Sigma), trimethyl phosphite (Fluka Chemicals).

Structure (SMILES) | h15LO, value given as bare % (Table 2) | IC50 (Table 2) | also measured
COc1ccc(NC(=O)c2ccc(F)c(F)c2)cc1NCc1cccc(C(=O)O)c1 [Example 246, 3-{[5-(3,4-Difluoro-benzoylamino)-2-methoxy-phenylandno]-methyl}-benzoic Acid] | 59.75% |  | 
COc1ccc(C(=O)Nc2ccc(F)c(F)c2)cc1NS(=O)(=O)c1cccc([N+](=O)[O-])c1 [Example 180, 3-(3-Nitro-benzenesufonylamino)-4-methoxy-N-(3,4-difluoro-phenyl)-benzamide] |  | 36 nM | 
COc1ccc(C(=O)Nc2ccccc2)cc1NCc1ccc(C(C)(C)C)cc1 [Example 232, 3-(4-tert-Butyl-benzylamino)-4-methoxy-N-phenyl-benzamide] | 80.36% |  | 
COc1ccc(C(=O)Nc2ccccc2)cc1NS(=O)(=O)c1ccc2ccccc2c1 [Example 140, 3-(Naphthalene-2-sulfonylamino)-4-methoxy-N-phenyl-benzamide] |  | 39 nM | 
COc1ccc(C(=O)Nc2ccccc2)cc1NCc1ccc(OC(C)=O)cc1 [Example 220, Acetic acid 4-[(2-methoxy-5-phenylcarbamoyl-phenylamino)-methyl]-phenyl Ester] |  | 509 nM | 
COc1ccc(C(=O)Nc2ccc(F)cc2)cc1Nc1cc(Cl)cc(Cl)c1 [Example 154] | 97.66% |  | 
COc1ccc(C(=O)Nc2ccccc2)cc1NS(=O)(=O)c1ccc(C(=O)O)cc1 [Example 183, 4-(2-Methoxy-5-phenylcarbamoyl-phenylsulfamoyl)-benzoic Acid] |  | 293 nM | 
COc1ccc(C(=O)Nc2ccccc2)cc1NS(=O)(=O)c1cccc(C#N)c1 [Example 195, 3-(3-Cyano-benzenesulfonylamino)-4-methoxy-N-phenyl-benzamide] | 93.07% |  | 
COc1ccc(C(=O)Nc2ccc(F)cc2)cc1NS(=O)(=O)c1ccc(C#N)cc1 [Example 193, 3-(4-Cyano-benzenesulfonylamino)-4-methoxy-N-(4-fluoro-phenyl)-benzamide] | 94.51% |  | 
O=C(Nc1ccc(F)c(NC(=S)Nc2cc(Cl)cc(Cl)c2)c1)c1ccc(F)c(F)c1 [Example 170, N-{3-[3-(3,5-Dichloro-phenyl)-thioureido]-4-fluoro-phenyl}-3,4-difluoro-benzamide] | 99.53% |  | 
COc1ccc(C(=O)Nc2ccc(F)c(F)c2)cc1NC(=S)Nc1cccc(C(=O)O)c1 [Example 162, 3-{3-[5-(3,4-Difluoro-phenylcarbamoyl)-2-methoxy-phenyl]-thioureido}-benzoic Acid] |  | 55 nM | 
CCCCCCCCS(=O)(=O)Nc1cc(C(=O)Nc2ccccc2)ccc1OC [Example 178, 4-Methoxy-3-(octane-1-sulfonylamino)-N-phenyl-benzamide] |  | 4 nM | 
COc1ccc(NC(=O)c2ccc(F)c(F)c2)cc1NS(=O)(=O)c1cccc(N)c1 [Example 198, 3,4-Difluoro-N-[4-methoxy-3-(3-amino-benzenesulfonylamino)-phenyl]-benzamide] | 97.77% |  | 
COc1ccc(C(=O)Nc2ccccc2)cc1NC(=S)Nc1cccc([N+](=O)[O-])c1 [Example 254, 4-Methoxy-3-[3-(3-nitro-phenyl)-thioureido]-N-phenyl-benzamide] | 51% |  | 
COc1ccc(C(=O)Nc2ccccc2)cc1NS(=O)(=O)c1ccc(C#N)cc1 [Example 192, 3-(4-Cyano-benzenesulfonylamino)-4-methoxy-N -phenyl-benzamide] | 95.56% |  | 
COc1ccc(NC(=O)c2ccc(F)c(F)c2)cc1NS(=O)(=O)c1cccc([N+](=O)[O-])c1 [Example 203, 3,4-Difluoro-N-[4-methoxy-3-(3-nitro-benzenesulfonylamino)-phenyl]-benzamide] | 92.01% |  | 
COc1ccc(NC(=O)c2ccccc2)cc1N [Example 21, N-(3-Amino-4-methoxyphenyl)-benzamide] |  |  | IC50 (Table 1): 2130 nM
COc1ccc(S(=O)(=O)Nc2cc(NC(=O)c3ccc(Cl)c(Cl)c3)ccc2OC)cc1 [Example 196, 3,4-Dichloro-N-[4-methoxy-3-(4-methoxy-benzenesulfonylamino)-phenyl]-benzamide] |  | 33 nM | 
COc1ccc(NC(=O)c2ccc(F)c(F)c2)cc1NC(=S)Nc1cccc(C(=O)O)c1 [Example 169, 3-{3-[5-(3,4-Difluoro-benzoylamino)-2-methoxy-phenyl]-thioureido}-benzoic Acid] |  | 246 nM | 
COc1ccc(C(=O)Nc2ccccc2)cc1Nc1cccc(C(F)(F)F)c1 [Example 30, 3-(3-Trifluoromethyl-phenylamino)-4-methoxy-N-phenyl-benzamide] |  | 10 nM | 
Cc1ccc(C(=O)Nc2ccccc2)cc1Nc1ccccc1 [Example 38, 3-Phenylamino-4-methyl-N-phenyl-benzamide] |  | > 3000 nM | 
COc1ccc(C(=O)Nc2ccc(F)c(F)c2)cc1NC(=S)Nc1ccc(S(=O)(=O)[O-])cc1.[Na+] [Example 165, 4-{3-[5-(3,4-Difluoro-phenylcarbamoyl)-2-methoxy-phenyl]-thioureido}-benzenesulfonic Acid, Sodium Salt] | 98.51% |  | 

More lines, main results first:

h15LO, value given as bare % (Table 2) | IC50 (Table 2) | Structure (SMILES) | also measured
96.21% |  | CCN(CC)c1ccc(CNc2cc(C(=O)Nc3ccc(F)c(F)c3)ccc2OC)cc1 [Example 226, 3-(4-Diethylamino-benzylamino)-4-methoxy-N-(3,4-difluoro-phenyl)-benzamide] | 
 | 89 nM | COc1ccc(C(=O)Nc2ccccc2)cc1NCc1cccc(F)c1 [Example 214, 4-Methoxy-3-(3-fluoro-benzylamino)-N-phenyl-benzamide] | 
 | 224 nM | COc1ccc(C(=O)Nc2ccccc2)cc1NCc1cccc(Cl)c1 [Example 231, 3-(3-Chloro-benzylamino)-4-methoxy-N-phenyl-benzamide] | 
 | 24 nM | COc1ccc(C(=O)Nc2ccc(F)c(F)c2)cc1NCc1cccc(O)c1 [Example 210, 3-(3-Hydroxy-benzylamino)-4-methoxy-N-(3,4-difluoro-phenyl)-benzamide] | 
 | 198 nM | COc1ccc(C(=O)Nc2ccccc2)cc1NCc1cc(F)cc(F)c1 [Example 267, 4-Methoxy-3-(3,5-difluoro-benzylamino)-N-phenyl-benzamide] | 
95.74% |  | COc1ccc(C(=O)Nc2ccc(F)c(F)c2)cc1NCc1ccccc1 [Example 227, 3-Benzylamino-4-methoxy-N-(3,4-difluoro-phenyl)-benzamide] | 
92.92% |  | COc1ccc(C(=O)Nc2ccccc2)cc1NCc1ccc([N+](=O)[O-])c(O)c1 [Example 228, 3-(3-Hydroxy-4-nitro-benzylamino)-4-methoxy-N-phenyl-benzamide] | 
 | 391 nM | COc1ccc(C(=O)Nc2ccccc2)cc1NCc1ccc(F)c(F)c1 [Example 274, 3-(3,4-Difluoro-benzylamino)-4-methoxy-N-phenyl-benzamide] | 
98.89% |  | COc1ccc(NC(=O)c2ccc(F)c(F)c2)cc1NCc1cccs1 [Example 265, 3,4-Difluoro-N-{4-methoxy-3-[(thiophen-2-ylmethyl)-amino]-phenyl}-benzamide] | 
49.19% |  | COc1ccc(C(=O)Nc2ccccc2)cc1NCc1ccc(C(C)C)cc1 [Example 243, 3-(4-Isopropyl-benzylamino)-4-methoxy-N-phenyl-benzamide] | 
 | 304 nM | COc1ccc(C(=O)Nc2ccccc2)cc1NCc1ccc(O)cc1 [Example 272, 3-(4-Hydroxy-benzylamino)-4-methoxy-N-phenyl-benzamide] | 
58.09% |  | COc1ccc(C(=O)Nc2ccc(Cl)c(Cl)c2)cc1NCc1cccc(F)c1 [Example 240, 3-(3-Fluoro-benzylamino)-4-methoxy-N-(3,4-dichloro-phenyl)-benzamide] | 
 | 79 nM | COc1ccc(C(=O)Nc2ccccc2)cc1NCc1cccc(O)c1 [Example 213, 3-(3-Hydroxy-benzylamino)-4-methoxy-N-phenyl-benzamide] | 
 | 221 nM | COc1ccc(C(=O)Nc2ccccc2)cc1NCc1cccc(C(F)(F)F)c1 [Example 269, 4-Methoxy-3-(3-trifluoromethyl-benzylamino)-N-phenyl-benzamide] | 
